Values joined by “and” are separate entries in the source; they are usually repeats but may differ in a detail not shown here. Identical values can stand only once. Like-named read-outs stand apart in the source and are kept apart here. Non-standard residues stand in square brackets, D forms with d. Residues, ends and D or L forms follow the SMILES beside them. *: point of attachment. NH(3,5-(CF3)2-benzyl) = FC(F)(F)c1cc(CN*)cc(C(F)(F)F)c1; NMeW = CN[C@@H](Cc1c[nH]c2ccccc12)C(=O)O; Phe(4-F) = N[C@@H](Cc1ccc(F)cc1)C(=O)O; Dmt = Cc1cc(O)cc(C)c1C[C@H](N)C(=O)O; NMeF = CN[C@@H](Cc1ccccc1)C(=O)O
Experiments:
MOR [1] = assay: Guinea pig isolated ileum (GPI) functional assay; type: cell-based; conditions: for IC50: agonist activity, electrically stimulated tissue, read-out: GPI (MOR) IC50
rNK1 = rNK1 (Rattus norvegicus, UniProt P14600); assay: Radioligand binding assay at rat NK1 receptor
Chain of rNK1 (P14600 whole entry): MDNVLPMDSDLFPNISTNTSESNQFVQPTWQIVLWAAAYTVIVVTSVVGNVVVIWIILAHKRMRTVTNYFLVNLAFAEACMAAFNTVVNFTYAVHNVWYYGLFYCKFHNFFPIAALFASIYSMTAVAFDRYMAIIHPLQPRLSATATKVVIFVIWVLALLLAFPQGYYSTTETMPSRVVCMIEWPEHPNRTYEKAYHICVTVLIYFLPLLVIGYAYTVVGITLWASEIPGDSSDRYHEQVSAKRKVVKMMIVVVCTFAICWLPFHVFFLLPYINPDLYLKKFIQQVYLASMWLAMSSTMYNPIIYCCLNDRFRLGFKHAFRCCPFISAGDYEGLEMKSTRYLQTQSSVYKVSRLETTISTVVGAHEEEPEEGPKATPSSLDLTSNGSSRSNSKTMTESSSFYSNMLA
Description: (§1) Binding affinities of these ligands were measured on radioligand binding assays. […] ([43]).

NK1R = target: T1, NK1R (Cavia porcellus, UniProt P30547); assay: GPI/LMMP functional assay at NK1R (agonist and antagonist testing); type: cell-based, guinea pig; conditions: for GPI/LMMP (NK1R) Agonist: agonist activity at the concentration in the cell
T1 construct: The longitudinal muscle with myenteric plexus (LMMP) was carefully separated from the circular muscle; from tissue; host or cells: guinea pig ileum longitudinal muscle with myenteric plexus
T1 sequence (P30547 whole entry): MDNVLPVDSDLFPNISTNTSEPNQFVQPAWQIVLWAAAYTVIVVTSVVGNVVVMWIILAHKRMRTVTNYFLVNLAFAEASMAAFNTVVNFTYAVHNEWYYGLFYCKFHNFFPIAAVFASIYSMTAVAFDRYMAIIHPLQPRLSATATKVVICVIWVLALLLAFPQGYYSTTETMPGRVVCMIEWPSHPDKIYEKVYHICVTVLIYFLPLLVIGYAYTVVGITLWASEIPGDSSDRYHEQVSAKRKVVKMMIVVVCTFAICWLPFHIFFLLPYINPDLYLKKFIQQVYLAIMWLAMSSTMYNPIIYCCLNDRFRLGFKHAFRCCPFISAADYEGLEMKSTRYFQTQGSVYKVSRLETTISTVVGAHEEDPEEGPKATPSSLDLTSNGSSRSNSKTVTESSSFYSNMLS

MOR [2] = assay: Radioligand binding assay at μ opioid receptor; conditions: for Log[IC50±] (μ): log IC50 ± error; for Ki^μ/Ki^δ: ratio of binding affinities MOR/DOR
Description: as §1

DOR [3] = target: T2, DOR (Mus musculus, UniProt P32300); assay: Mouse isolated vas deferens (MVD) functional assay; type: cell-based
T2 construct: Male ICR mice under CO2 anesthesia were sacrificed by cervical dislocation and the vasa differentia removed; from tissue; host or cells: mouse vas deferens (ICR mice)
T2 sequence (P32300 whole entry): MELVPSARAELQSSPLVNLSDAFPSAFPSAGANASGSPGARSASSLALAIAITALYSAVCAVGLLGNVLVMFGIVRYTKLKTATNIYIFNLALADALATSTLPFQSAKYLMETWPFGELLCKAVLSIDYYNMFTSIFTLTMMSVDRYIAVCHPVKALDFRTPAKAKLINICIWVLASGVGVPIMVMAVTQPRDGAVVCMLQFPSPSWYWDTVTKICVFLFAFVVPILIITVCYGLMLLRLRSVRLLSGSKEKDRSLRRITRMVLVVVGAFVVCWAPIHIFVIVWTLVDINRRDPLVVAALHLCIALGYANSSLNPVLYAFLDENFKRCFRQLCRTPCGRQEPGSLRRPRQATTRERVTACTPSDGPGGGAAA

DOR [4] = target: DOR (Homo sapiens, UniProt P41143); assay: Radioligand binding assay at δ opioid receptor; conditions: for Ki: Ki^δ (nM)
Chain of DOR (Homo sapiens, UniProt P41143) (P41143 whole entry): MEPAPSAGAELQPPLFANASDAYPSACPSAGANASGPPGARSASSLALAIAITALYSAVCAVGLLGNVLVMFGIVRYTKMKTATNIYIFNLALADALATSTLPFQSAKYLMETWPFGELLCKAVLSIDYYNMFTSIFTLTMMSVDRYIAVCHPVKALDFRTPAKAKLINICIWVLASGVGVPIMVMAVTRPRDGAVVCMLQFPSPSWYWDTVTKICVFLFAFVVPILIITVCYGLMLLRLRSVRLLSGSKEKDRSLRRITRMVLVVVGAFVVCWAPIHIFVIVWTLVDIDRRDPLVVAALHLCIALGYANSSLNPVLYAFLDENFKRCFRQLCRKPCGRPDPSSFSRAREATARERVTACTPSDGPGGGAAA
Description: as §1

hNK1 = target: T3, hNK1 (Homo sapiens, UniProt P25103); assay: hNK1/CHO cell membrane radioligand binding assay ([3H]SP); conditions: for Ki: hNK1/CHO membranes, [3H]SP; for Ki^hNK1/Ki^rNK1: ratio human/rat NK1
T3 construct: expressed in transfected cells; host or cells: CHO
T3 sequence (P25103 whole entry): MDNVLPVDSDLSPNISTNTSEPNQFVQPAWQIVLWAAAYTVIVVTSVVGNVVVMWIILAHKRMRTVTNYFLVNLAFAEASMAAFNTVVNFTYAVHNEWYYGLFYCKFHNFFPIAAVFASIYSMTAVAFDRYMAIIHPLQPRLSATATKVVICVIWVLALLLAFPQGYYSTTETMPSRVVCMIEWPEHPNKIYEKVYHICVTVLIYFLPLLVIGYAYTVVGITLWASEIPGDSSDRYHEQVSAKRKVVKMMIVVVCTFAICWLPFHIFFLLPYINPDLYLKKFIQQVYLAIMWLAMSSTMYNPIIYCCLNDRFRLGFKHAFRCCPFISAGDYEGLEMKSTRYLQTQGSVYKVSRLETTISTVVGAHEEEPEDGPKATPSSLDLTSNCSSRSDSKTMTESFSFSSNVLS

[5] = GPI/LMMP (NK1R) Ke (nM) ± S.E.M., antagonist activity
[6] = MVD (DOR) IC50 (nM), agonist activity, electrically stimulated tissue

CC(C)C[C@H](NC(=O)[C@@H]1CCCN1C(=O)c1ccc(NC(=O)[C@H](Cc2ccccc2)N(C)C(=O)CNC(=O)[C@@H](C)NC(=O)[C@@H](N)Cc2ccc(O)cc2)cc1)C(=O)N[C@@H](Cc1c[nH]c2ccccc12)C(=O)NCc1cc(C(F)(F)F)cc(C(F)(F)F)c1 [AKG176, H-Tyr-D-Ala-Gly-NMePhe-4-Abz-Pro-Leu-Trp-NH-Bn(3′,5′-(CF3)2)]
GPI/MVD IC50 ratio (MOR [1]): 2/1
IC50 (MOR [1]): 40.8 ± 8 nM
Ki (rNK1; Ki^rNK1 (nM)): 74 nM
Kb (NK1R): 117 ± 31.4 nM
GPI/LMMP (NK1R) Agonist (NK1R): None at 300 nM
Ki (MOR [2]): 1 nM
Log[IC50±] (μ) (MOR [2]): −8.69 ± 0.24
Ki^μ/Ki^δ (MOR [2]): 1/82
IC50 (DOR [3]): 22.8 ± 5.53 nM
IC50 (DOR [4]): 182 nM
Ki (DOR [4]): 70 nM
Ki (hNK1; Ki^hNK1 (nM)): 5.3 nM
Ki^hNK1/Ki^rNK1 (hNK1): 1/19

CC(C)C[C@H](NC(=O)[C@@H]1CCCN1C(=O)[C@H](Cc1ccccc1)NC(=O)[C@H](Cc1c[nH]c2ccccc12)NC(=O)[C@@H]1CCCN1C(=O)[C@@H](N)Cc1ccc(O)cc1)C(=O)N[C@@H](Cc1c[nH]c2ccccc12)C(=O)NCc1cc(C(F)(F)F)cc(C(F)(F)F)c1 [AKG221, H-Tyr-Pro-Trp-Phe-Pro-Leu-Trp-NH-Bn(3′,5′-(CF3)2)] (H-YPWFPLW-{NH(3,5-(CF3)2-benzyl)})
Ki (rNK1; Ki^rNK1 (nM)): 38.5 ± 3.6 nM
Ki (hNK1; Ki^hNK1 (nM)): 3.34 ± 0.32 nM

CC(C)C[C@H](NC(=O)[C@@H]1CCCN1C(=O)c1ccc(CNC(=O)[C@H](Cc2ccccc2)N(C)C(=O)CNC(=O)[C@@H](C)NC(=O)[C@@H](N)Cc2ccc(O)cc2)cc1)C(=O)N[C@@H](Cc1c[nH]c2ccccc12)C(=O)NCc1cc(C(F)(F)F)cc(C(F)(F)F)c1 [AKG125, H-Tyr-D-Ala-Gly-NMePhe-4-Amb-Pro-Leu-Trp-NH-Bn(3′,5′-(CF3)2)]
GPI/MVD IC50 ratio (MOR [1]): 10/1
IC50 (MOR [1]): 470 nM and 471 nM
Ki (rNK1; Ki^rNK1 (nM)): 30 nM
Kb (NK1R): 8.36 ± 4.12 nM
GPI/LMMP (NK1R) Agonist (NK1R): None at 100 nM
Ki (MOR [2]): 5 nM
binding selectivity for MOR over DOR (MOR [2]): 23 times
Log[IC50±] (μ) (MOR [2]): −7.92 ± 0.11
IC50 (DOR [3]): 46.3 ± 13.4 nM
higher agonist activity at DOR compared to MOR (functional assays) (DOR [3]): 10 times
IC50 (DOR [4]): 263 nM
Ki (hNK1; Ki^hNK1 (nM)): 2.3 nM
Ki^hNK1/Ki^rNK1 (hNK1): 1/13

CC(C)C[C@H](NC(=O)[C@@H]1CCCN1C(=O)[C@H](CCC(N)=O)NC(=O)[C@H](Cc1ccccc1)NC(=O)CNC(=O)[C@@H](C)NC(=O)[C@@H](N)Cc1ccc(O)cc1)C(=O)N[C@@H](Cc1c[nH]c2ccccc12)C(=O)NCc1cc(C(F)(F)F)cc(C(F)(F)F)c1 [AKG105]
Ki (rNK1; Ki^rNK1 (nM)): 12 nM
Log[IC50±] (μ) (MOR [2]): −7.06 ± 0.18
IC50 (DOR [4]): 20.4 nM
Ki (DOR [4]): 9 nM
Ki (hNK1; Ki^hNK1 (nM)): 1 nM

CSCC[C@H](NC(=O)[C@H](Cc1ccccc1)NC(=O)CNC(=O)[C@@H](C)NC(=O)[C@@H](N)Cc1ccc(O)cc1)C(=O)N1CCC[C@H]1C(=O)N[C@@H](CC(C)C)C(=O)N[C@@H](Cc1c[nH]c2ccccc12)C(=O)NCc1cc(C(F)(F)F)cc(C(F)(F)F)c1 [TY027, H-Tyr-D-Ala-Gly-Phe-Met-Pro-Leu-Trp-NH-Bn(3′,5′-(CF3)2), reference compound]
Ki (rNK1; Ki^rNK1 (nM)): 10 nM and 14 nM
Ki (hNK1; Ki^hNK1 (nM)): 1.5 nM and 2 nM

Cc1cc(O)cc(C)c1C[C@H](N)C(=O)N[C@H](C)C(=O)NCC(=O)N(C)[C@@H](Cc1ccccc1)C(=O)N[C@@H](CCC(N)=O)C(=O)NCC(=O)N1CCC[C@H]1C(=O)N[C@@H](CC(C)C)C(=O)N[C@@H](Cc1c[nH]c2ccccc12)C(=O)NCc1cc(C(F)(F)F)cc(C(F)(F)F)c1 [AKG-SK-146] (H-[Dmt][dA]G[NMeF]QGPLW-{NH(3,5-(CF3)2-benzyl)}; N-terminus assumed)
Ki (rNK1; Ki^rNK1 (nM)): 78.6 ± 9.8 nM
Ki (MOR [2]): 0.6 nM
Log[IC50±] (μ) (MOR [2]): −8.94 ± 0.17
Ki^μ/Ki^δ (MOR [2]): 1/1
IC50 (DOR [4]): 1.41 nM
Ki (DOR [4]): 0.6 nM
Ki (hNK1; Ki^hNK1 (nM)): 6.37 ± 1.54 nM
Ki^hNK1/Ki^rNK1 (hNK1): 1/15

Cc1cc(O)cc(C)c1C[C@H](N)C(=O)N[C@H](C)C(=O)N(C)CC(=O)N(C)[C@@H](Cc1ccccc1)C(=O)N1CCC[C@H]1C(=O)N[C@@H](CC(C)C)C(=O)N[C@@H](Cc1c[nH]c2ccccc12)C(=O)NCc1cc(C(F)(F)F)cc(C(F)(F)F)c1 [AKG182, H-Dmt-D-Ala-NMeGly-NMePhe-Pro-Leu-Trp-NH-Bn(3′,5′-(CF3)2)]
Ki (rNK1; Ki^rNK1 (nM)): 110 ± 18.3 nM
Ki^hNK1/Ki^rNK1 (hNK1): 1/22

CC(C)C[C@H](NC(=O)[C@@H]1CCCN1C(=O)[C@H](Cc1ccccc1)N(C)C(=O)[C@H](Cc1c[nH]c2ccccc12)NC(=O)[C@@H]1CCCN1C(=O)[C@@H](N)Cc1ccc(O)cc1)C(=O)N[C@@H](Cc1c[nH]c2ccccc12)C(=O)NCc1cc(C(F)(F)F)cc(C(F)(F)F)c1 [AKG223, H-Tyr-Pro-Trp-NMePhe-Pro-Leu-Trp-NH-Bn(3′,5′-(CF3)2)] (H-YPW[NMeF]PLW-{NH(3,5-(CF3)2-benzyl)})
Ki (rNK1; Ki^rNK1 (nM)): 10.1 ± 6.3 nM
Ki (hNK1; Ki^hNK1 (nM)): 3.59 ± 0.3 nM

CC(C)C[C@H](NC(=O)[C@@H]1CCCN1C(=O)CNC(=O)[C@H](Cc1ccc(F)cc1)NC(=O)CNC(=O)[C@@H](C)NC(=O)[C@@H](N)Cc1ccc(O)cc1)C(=O)N[C@@H](Cc1c[nH]c2ccccc12)C(=O)NCc1cc(C(F)(F)F)cc(C(F)(F)F)c1 [AKG130, H-Tyr-D-Ala-Gly-Phe(4-F)-Gly-Pro-Leu-Trp-NH-Bn(3′,5′-(CF3)2)] (H-Y[dA]G[Phe(4-F)]GPLW-{NH(3,5-(CF3)2-benzyl)})
IC50 (MOR [1]): 340 nM and 339 nM
Ki (rNK1; Ki^rNK1 (nM)): 72 nM
Kb (NK1R; [5]): 11 nM and 10.6 nM
GPI/LMMP (NK1R) Agonist (NK1R): None at 300 nM
Ki (MOR [2]): 9 nM
Log[IC50±] (μ) (MOR [2]): −7.69 ± 0.06
Ki^μ/Ki^δ (MOR [2]): 2/1
IC50 (DOR [3]; [6]): 11.9 ± 1.56 nM
IC50 (DOR [4]): 11 nM
Ki (DOR [4]): 5 nM
Ki (hNK1; Ki^hNK1 (nM)): 1.54 nM
Ki^hNK1/Ki^rNK1 (hNK1): 1/47

CC(C)C[C@H](NC(=O)[C@@H]1CCCN1C(=O)[C@@H](CO)NC(=O)[C@H](Cc1ccccc1)NC(=O)CNC(=O)[C@@H](C)NC(=O)[C@@H](N)Cc1ccc(O)cc1)C(=O)N[C@@H](Cc1c[nH]c2ccccc12)C(=O)NCc1cc(C(F)(F)F)cc(C(F)(F)F)c1 [AKG101]
Ki (rNK1; Ki^rNK1 (nM)): 110 nM
Kb (NK1R; [5]): 28 ± 11.8 nM
GPI/LMMP (NK1R) Agonist (NK1R): None at 100 nM
Ki (MOR [2]): 200 nM
Log[IC50±] (μ) (MOR [2]): −6.35 ± 0.26
Ki^μ/Ki^δ (MOR [2]): 6/1
IC50 (DOR [3]; [6]): 6.7 nM and 6.72 nM
IC50 (DOR [4]): 74.1 nM
Ki (hNK1; Ki^hNK1 (nM)): 3 nM
Ki^hNK1/Ki^rNK1 (hNK1): 1/39

CC(C)C[C@H](NC(=O)[C@@H]1CCCN1C(=O)CNC(=O)[C@H](CCC(N)=O)NC(=O)[C@H](Cc1ccccc1)N(C)C(=O)CNC(=O)[C@@H](C)NC(=O)[C@@H](N)Cc1ccc(O)cc1)C(=O)N[C@@H](Cc1c[nH]c2ccccc12)C(=O)NCc1cc(C(F)(F)F)cc(C(F)(F)F)c1 [AKG-SK-145] (H-Y[dA]G[NMeF]QGPLW-{NH(3,5-(CF3)2-benzyl)})
Ki (rNK1; Ki^rNK1 (nM)): 120 nM and 125 nM
Ki (MOR [2]): 2 nM
Log[IC50±] (μ) (MOR [2]): −8.43 ± 0.08
Ki^μ/Ki^δ (MOR [2]): 1/3
IC50 (DOR [4]): 14.5 nM
Ki (DOR [4]): 6 nM
Ki (hNK1; Ki^hNK1 (nM)): 7.5 nM
Ki^hNK1/Ki^rNK1 (hNK1): 1/16

CC(C)C[C@H](NC(=O)[C@@H]1CCCN1C(=O)[C@H](CC(N)=O)NC(=O)[C@H](Cc1ccccc1)NC(=O)CNC(=O)[C@@H](C)NC(=O)[C@@H](N)Cc1ccc(O)cc1)C(=O)N[C@@H](Cc1c[nH]c2ccccc12)C(=O)NCc1cc(C(F)(F)F)cc(C(F)(F)F)c1 [AKG104]
Ki (rNK1; Ki^rNK1 (nM)): 20 nM
Log[IC50±] (μ) (MOR [2]): −6.93 ± 0.05
Ki^μ/Ki^δ (MOR [2]): 3/1
IC50 (DOR [4]): 37.2 nM
Ki (DOR [4]): 17 nM

CC(C)C[C@H](NC(=O)[C@@H]1CCCN1C(=O)[C@H](Cc1ccccc1)NC(=O)CNC(=O)[C@@H](C)NC(=O)[C@@H](N)Cc1ccc(O)cc1)C(=O)N[C@@H](Cc1c[nH]c2ccccc12)C(=O)NCc1cc(C(F)(F)F)cc(C(F)(F)F)c1 [TY012, reference compound]
Ki (rNK1; read-out: Ki^rNK1): 33 nM
Log[IC50±] (μ) (MOR [2]): −7.7 ± 0.21
Ki (hNK1; read-out: Ki^hNK1): 0.61 nM

CC(C)C[C@H](NC(=O)[C@@H]1CCCN1C(=O)[C@H](Cc1ccccc1)N(C)C(=O)[C@H](Cc1c[nH]c2ccccc12)N(C)C(=O)[C@@H]1CCCN1C(=O)[C@@H](N)Cc1ccc(O)cc1)C(=O)N[C@@H](Cc1c[nH]c2ccccc12)C(=O)NCc1cc(C(F)(F)F)cc(C(F)(F)F)c1 [AKG225, H-Tyr-Pro-NMeTrp-NMePhe-Pro-Leu-Trp-NH-Bn(3′,5′-(CF3)2)] (H-YP[NMeW][NMeF]PLW-{NH(3,5-(CF3)2-benzyl)})
Ki (rNK1; Ki^rNK1 (nM)): 302 ± 78.5 nM
Ki (hNK1; Ki^hNK1 (nM)): 14.8 ± 1.4 nM
Ki^hNK1/Ki^rNK1 (hNK1): 1/20
